From ChEMBL document CHEMBL1201862, “PubChem BioAssay data set” (2004)
The source made the active and inactive calls.

How the values were obtained:
[1] = molecular target: T1, Protein skinhead-1 (Caenorhabditis elegans, UniProt P34707); assay type: functional
T1 sequence (P34707 whole entry): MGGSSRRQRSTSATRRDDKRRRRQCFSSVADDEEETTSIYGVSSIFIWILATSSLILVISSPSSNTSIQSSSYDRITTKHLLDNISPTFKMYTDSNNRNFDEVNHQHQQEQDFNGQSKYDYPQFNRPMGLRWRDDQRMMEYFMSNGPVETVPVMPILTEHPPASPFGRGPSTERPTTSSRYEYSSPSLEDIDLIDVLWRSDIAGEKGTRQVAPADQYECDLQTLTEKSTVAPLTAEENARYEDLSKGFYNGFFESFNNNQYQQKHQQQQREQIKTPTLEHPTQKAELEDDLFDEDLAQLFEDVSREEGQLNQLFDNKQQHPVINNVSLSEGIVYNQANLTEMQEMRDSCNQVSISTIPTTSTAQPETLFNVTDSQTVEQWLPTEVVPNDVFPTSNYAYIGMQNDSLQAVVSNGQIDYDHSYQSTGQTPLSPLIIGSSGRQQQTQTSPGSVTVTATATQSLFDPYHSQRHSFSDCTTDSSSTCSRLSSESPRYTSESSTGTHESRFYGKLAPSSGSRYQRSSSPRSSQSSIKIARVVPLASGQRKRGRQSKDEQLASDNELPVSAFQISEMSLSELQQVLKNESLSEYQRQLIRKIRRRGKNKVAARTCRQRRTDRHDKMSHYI

[2] = molecular target: Genome polyprotein (dengue virus type 2, UniProt P29990); experiment: flavivirus cap methylation enzyme inhibition – biochemical, confirmation dose response, primary screen (AID 588689); assay type: functional
[3] = molecular target: Hepatocyte nuclear factor 4-alpha (Homo sapiens, UniProt P41235); assay type: functional, cell-based;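 note: biochemical luminescence-based dose-response counterscreen measuring inhibition of HNF4 dimerization, run alongside a screen for blockers of ABHD5–perilipin-5 interaction; split luciferase complementation of HNF4 fusion proteins in cell lysate measuring dimerization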
[4] = molecular target: T2, RNA-binding protein pos-1 (Caenorhabditis elegans, UniProt G5EF15); experiment: disruptors of C. elegans POS-1 RNA interaction – biochemical, fluorescence polarization, dose response (AID 1964);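 note: purified POS-1 fused to maltose binding protein made in E. coli; potency of compounds blocking POS-1 binding to fluorescent RNA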
T2 sequence (G5EF15 whole entry): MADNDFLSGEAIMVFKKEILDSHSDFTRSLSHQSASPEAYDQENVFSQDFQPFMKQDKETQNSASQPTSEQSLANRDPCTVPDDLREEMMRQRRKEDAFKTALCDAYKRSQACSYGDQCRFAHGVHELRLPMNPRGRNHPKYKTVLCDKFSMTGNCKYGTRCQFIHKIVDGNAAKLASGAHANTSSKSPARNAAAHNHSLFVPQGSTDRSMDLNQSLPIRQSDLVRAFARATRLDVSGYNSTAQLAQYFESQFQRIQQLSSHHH

[5] = molecular target: T3, Zinc finger protein mex-5 (Caenorhabditis elegans, UniProt Q9XUB2); experiment: potency of MEX-5 RNA-binding blockers – biochemical, C. elegans, fluorescence polarization, dose response (AID 1960)
T3 sequence (Q9XUB2 whole entry): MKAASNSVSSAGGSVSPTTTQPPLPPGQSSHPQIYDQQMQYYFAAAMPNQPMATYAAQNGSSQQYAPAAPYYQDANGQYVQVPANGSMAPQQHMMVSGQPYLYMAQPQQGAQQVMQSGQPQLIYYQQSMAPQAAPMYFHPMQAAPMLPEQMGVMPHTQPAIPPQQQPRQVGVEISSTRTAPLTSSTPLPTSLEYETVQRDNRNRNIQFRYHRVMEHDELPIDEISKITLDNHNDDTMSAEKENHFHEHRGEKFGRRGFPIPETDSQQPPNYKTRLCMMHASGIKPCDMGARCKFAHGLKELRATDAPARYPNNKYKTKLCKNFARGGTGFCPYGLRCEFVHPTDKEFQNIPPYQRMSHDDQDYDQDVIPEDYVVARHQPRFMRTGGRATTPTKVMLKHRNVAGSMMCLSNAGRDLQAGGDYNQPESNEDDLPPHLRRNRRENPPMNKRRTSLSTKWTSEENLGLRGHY

[6] = viability loss in CEM21 cells – cell-based, CellTiter-Glo luminescence, cherry-picked, cytotoxicity control for viral fusion inhibitor project, dose response (AID 652042); assay type: functional;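 note: potency for signal decrease meaning cytotoxicity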
[7] = HIV-1 AD8 envelope cell-cell fusion blockers – cherry-pick, dose response (AID 652062); assay type: functional, cell-based;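 note: luciferase signal from cell-cell fusion driven by HIV-1 clade B AD8 Env; potency is for inhibitors of fusion seen as a drop in luminescence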
[8] = molecular target: ADP-ribosylation factor GTPase-activating protein 1 (Rattus norvegicus, UniProt Q62848); experiment: Fluorescence polarization-based biochemical high throughput dose response screening assay to identify inhibitors of ADP-ribosylation factor GTPase activating protein 1 (ARFGAP1).; assay type: functional
[9] = molecular target: Protein Wnt-3a (Mus musculus, UniProt P27467); experiment: antagonism of Wnt3a pathway luciferase reporter – Wnt-LIGHT cells, luminescence, selectivity assay for Gli-SUFU antagonist project, dose response (AID 651570); assay type: functional; conditions: read-out: IC50_Mean;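 note: Wnt-LIGHT reporter cells stimulated with conditioned medium from Wnt3a-producing cells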
[10] = molecular target: T4, Corticotropin-releasing factor receptor 2/Corticotropin-releasing factor-binding protein (Homo sapiens, UniProt P24387+Q13324); experiment: activators of CRF receptor 2 with binding protein – uHTS hits, confirmation (AID 602473); assay type: functional; conditions: read-out: EC50_Mean
T4 sequence (Q13324 whole entry): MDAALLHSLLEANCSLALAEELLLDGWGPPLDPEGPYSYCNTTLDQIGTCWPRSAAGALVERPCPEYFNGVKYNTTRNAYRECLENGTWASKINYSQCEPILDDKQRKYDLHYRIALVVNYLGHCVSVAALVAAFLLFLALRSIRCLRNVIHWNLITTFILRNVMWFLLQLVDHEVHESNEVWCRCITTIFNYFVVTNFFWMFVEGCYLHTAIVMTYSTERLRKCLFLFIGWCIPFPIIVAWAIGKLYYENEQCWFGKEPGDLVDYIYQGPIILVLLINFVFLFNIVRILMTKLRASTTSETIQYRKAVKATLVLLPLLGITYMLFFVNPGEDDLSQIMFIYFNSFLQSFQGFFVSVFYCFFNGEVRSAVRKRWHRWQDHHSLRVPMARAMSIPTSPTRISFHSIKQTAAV
T4 sequence (P24387 whole entry): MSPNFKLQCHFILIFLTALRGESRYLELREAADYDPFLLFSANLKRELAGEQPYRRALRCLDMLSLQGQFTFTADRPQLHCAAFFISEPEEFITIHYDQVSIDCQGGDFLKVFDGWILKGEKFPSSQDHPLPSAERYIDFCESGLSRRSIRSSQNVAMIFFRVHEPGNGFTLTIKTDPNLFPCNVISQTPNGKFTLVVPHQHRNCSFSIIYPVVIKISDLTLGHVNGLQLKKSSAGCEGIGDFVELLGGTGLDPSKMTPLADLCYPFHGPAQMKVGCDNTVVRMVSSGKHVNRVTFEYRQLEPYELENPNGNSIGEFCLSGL

[11] = blockers of CRF-binding protein–CRF-R2 complex – cell-based, uHTS hits, 384-well, dose response (AID 651639); assay type: functional, Homo sapiens; conditions: read-out: IC50_Mean
[12] = molecular target: T4, Corticotropin-releasing factor receptor 2/Corticotropin-releasing factor-binding protein; experiment: Dose Response confirmation of uHTS hits for small molecule antagonists of the CRF-binding protein and CRF-R2 receptor complex.; assay type: functional; conditions: read-out: IC50_Mean
[13] = molecular target: Arf-GAP with SH3 domain, ANK repeat and PH domain-containing protein 1 (Homo sapiens, UniProt Q9ULH1); assay type: functional;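 note: biochemical fluorescence polarization dose–response screen measuring inhibition of ASAP1; ASAP1 GAP domain stimulating GTP hydrolysis by truncated human ARF1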
[14] = molecular target: Galanin receptor type 3 (Homo sapiens, UniProt O60755); experiment: Fluorescence-based cell-based primary high throughput dose response assay to identify antagonists of the Galanin Receptor 3 (GalR3).; assay type: functional
[15] = molecular target: Beta-galactosidase (Escherichia coli, UniProt Q8VNN2); experiment: PubChem AID 485352; assay type: functional
[16] = molecular target: T5, Type-1 angiotensin II receptor (Homo sapiens, UniProt P30556); experiment: antagonism of angiotensin II type 1 receptor – cell-based, uHTS hits, selectivity assay for APJ receptor antagonist project, dose response (AID 463214); assay type: functional;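 note: antagonist potency against angiotensin II stimulated AT1 response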
T5 sequence (P30556 whole entry): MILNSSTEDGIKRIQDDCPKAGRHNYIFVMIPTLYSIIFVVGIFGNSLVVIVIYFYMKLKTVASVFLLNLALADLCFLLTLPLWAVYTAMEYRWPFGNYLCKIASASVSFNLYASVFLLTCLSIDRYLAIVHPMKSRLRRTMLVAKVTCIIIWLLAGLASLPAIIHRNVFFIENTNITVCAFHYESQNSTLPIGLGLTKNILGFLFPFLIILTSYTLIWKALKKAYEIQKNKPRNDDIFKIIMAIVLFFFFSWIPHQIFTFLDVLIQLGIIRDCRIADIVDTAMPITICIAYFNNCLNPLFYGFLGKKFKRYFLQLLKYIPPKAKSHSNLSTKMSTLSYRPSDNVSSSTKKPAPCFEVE

[17] = tested on: Vero; experiment: viability loss in Vero cells – cell-based, plate reader, cherry-pick samples, cytotoxicity control, dose response (AID 687020); assay type: functional; conditions: Chlorocebus sabaeus
[18] = molecular target: T6, Low molecular weight phosphotyrosine protein phosphatase (Homo sapiens, UniProt P24666); assay type: functional; conditions: read-out: IC50_Mean;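 note: Dose-response confirmation assay measuring inhibition of LMPTP enzyme activity by fluorescence intensity read-out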
T6 sequence (P24666 whole entry): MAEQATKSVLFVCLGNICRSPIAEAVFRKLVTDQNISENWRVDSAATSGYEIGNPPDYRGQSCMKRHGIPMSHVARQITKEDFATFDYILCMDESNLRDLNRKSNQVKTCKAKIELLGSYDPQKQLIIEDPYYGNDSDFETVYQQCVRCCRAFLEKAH

[19] = viability loss in HepG2 liver cells – cell-based, ATP luminescence, cherry-pick, set 6, cytotoxicity control, dose response (AID 1053125); assay type: functional
[20] = molecular target: T7, DNA repair and recombination protein RAD54-like (Homo sapiens, UniProt Q92698); experiment: RAD54 Holliday junction migration blockers – biochemical, fluorescence, cherry-picked samples, dose series, confirmation (AID 651657); assay type: functional
T7 sequence (Q92698 whole entry): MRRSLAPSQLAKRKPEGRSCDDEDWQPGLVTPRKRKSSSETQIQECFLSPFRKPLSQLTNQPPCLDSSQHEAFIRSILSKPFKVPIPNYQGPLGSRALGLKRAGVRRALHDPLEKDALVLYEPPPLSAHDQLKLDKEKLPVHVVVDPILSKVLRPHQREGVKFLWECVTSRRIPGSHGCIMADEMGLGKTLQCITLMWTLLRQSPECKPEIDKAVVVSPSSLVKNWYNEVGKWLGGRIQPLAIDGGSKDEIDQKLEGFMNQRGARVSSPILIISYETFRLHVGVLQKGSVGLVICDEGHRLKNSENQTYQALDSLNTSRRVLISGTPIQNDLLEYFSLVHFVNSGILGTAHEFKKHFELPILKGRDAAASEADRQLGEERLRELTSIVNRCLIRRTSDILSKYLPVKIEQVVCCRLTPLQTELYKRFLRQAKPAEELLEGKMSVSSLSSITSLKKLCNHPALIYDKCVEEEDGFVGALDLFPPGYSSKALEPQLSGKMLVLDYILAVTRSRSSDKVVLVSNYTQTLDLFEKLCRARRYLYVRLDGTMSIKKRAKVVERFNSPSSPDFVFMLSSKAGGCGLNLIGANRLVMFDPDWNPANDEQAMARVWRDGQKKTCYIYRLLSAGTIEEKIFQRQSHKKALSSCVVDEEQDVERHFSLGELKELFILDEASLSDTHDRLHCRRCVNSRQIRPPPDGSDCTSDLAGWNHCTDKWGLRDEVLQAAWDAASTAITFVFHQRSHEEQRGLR

[21] = acridine orange displacement from DNA – biochemical, fluorescence polarization, cherry-pick, artefact control for RAD54 inhibitor project, dose response (AID 651673); assay type: functional
[22] = molecular target: T8, Fatty acid synthase (Homo sapiens, UniProt P49327); experiment: inhibition of human FAS-TE enzyme activity – biochemical, kinetic fluorescence intensity, dose response (AID 624326); assay type: functional;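 note: rate of fluorescence rise from hydrolysis of a fluorogenic O-methyl fluorescein ester substrate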
[23] = Fluorescence-based cell-based high throughput dose response assay for inhibitors of the interaction of nucleotide-binding oligomerization domain containing 2 (NOD2) and the receptor-interacting serine-threonine kinase 2 (RIPK2).; assay type: functional; conditions: Homo sapiens
[24] = molecular target: Beta Lactamase (Pseudomonas aeruginosa, UniProt Q932Y6); experiment: BLA reporter interference, concentration series – BLA reporter cells, FRET fluorescence, artefact control for NOD2-RIPK2 interaction inhibitor project, dose response (AID 651552); assay type: functional, cell-based
[25] = molecular target: T8, Fatty acid synthase; experiment: inhibition of human FAS-TE enzyme activity – biochemical, endpoint fluorescence intensity, uHTS hits, dose response (AID 624327); assay type: functional;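 note: fluorescence from hydrolysis of an O-methyl fluorescein acyl ester substrate by the enzyme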

Protein Wnt-3a, sequence (P27467 whole entry): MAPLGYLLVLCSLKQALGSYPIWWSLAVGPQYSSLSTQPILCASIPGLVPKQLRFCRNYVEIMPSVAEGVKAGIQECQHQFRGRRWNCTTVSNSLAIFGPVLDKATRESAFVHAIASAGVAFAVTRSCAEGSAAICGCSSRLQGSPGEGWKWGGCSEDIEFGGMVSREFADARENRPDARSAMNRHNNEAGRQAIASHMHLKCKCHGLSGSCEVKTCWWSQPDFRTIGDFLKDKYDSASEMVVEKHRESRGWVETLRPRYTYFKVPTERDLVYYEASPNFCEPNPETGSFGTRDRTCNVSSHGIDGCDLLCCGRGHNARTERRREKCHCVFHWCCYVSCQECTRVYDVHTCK
ADP-ribosylation factor GTPase-activating protein 1, sequence (Q62848 whole entry): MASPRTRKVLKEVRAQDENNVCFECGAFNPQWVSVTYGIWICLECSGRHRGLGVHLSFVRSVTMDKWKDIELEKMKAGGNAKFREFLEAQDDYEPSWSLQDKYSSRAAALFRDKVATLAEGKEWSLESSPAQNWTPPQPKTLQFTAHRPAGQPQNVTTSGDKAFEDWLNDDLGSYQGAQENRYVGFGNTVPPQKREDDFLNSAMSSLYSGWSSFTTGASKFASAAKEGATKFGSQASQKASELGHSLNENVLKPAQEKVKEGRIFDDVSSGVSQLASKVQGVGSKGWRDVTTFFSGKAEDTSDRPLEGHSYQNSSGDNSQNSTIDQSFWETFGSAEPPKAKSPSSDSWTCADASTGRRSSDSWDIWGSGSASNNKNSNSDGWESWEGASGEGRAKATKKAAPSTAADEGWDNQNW
Arf-GAP with SH3 domain, ANK repeat and PH domain-containing protein 1, sequence (Q9ULH1 whole entry, the tested form may be a part): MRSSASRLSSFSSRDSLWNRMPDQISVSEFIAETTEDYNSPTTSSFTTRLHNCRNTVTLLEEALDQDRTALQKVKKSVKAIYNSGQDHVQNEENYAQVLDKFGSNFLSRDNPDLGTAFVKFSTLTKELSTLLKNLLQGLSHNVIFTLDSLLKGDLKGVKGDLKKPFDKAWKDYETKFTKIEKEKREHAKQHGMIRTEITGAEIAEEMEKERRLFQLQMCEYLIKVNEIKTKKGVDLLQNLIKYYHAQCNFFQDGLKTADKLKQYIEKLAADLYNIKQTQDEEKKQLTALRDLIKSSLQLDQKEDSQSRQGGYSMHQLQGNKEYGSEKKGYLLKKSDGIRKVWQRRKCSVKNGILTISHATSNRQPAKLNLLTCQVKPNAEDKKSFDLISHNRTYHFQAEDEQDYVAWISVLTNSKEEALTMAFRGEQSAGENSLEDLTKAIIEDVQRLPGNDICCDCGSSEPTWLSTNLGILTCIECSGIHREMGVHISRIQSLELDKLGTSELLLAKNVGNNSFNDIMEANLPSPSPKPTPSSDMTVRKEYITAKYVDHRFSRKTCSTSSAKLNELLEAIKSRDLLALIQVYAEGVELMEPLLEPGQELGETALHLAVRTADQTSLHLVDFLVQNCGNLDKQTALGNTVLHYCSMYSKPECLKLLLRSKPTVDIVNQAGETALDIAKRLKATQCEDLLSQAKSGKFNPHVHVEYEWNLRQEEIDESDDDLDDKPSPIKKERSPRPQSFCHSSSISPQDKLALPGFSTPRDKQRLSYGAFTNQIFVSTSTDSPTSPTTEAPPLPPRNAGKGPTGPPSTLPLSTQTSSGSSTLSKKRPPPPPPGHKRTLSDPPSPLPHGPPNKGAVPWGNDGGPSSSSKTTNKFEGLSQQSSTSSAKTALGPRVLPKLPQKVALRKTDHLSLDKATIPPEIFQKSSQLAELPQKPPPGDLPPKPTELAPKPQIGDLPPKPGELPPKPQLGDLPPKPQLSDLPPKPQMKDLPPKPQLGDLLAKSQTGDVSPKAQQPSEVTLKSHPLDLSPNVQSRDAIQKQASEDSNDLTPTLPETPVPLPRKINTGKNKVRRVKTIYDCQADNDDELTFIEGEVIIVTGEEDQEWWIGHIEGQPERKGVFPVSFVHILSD
T8 sequence (P49327 whole entry, the tested form may be a part): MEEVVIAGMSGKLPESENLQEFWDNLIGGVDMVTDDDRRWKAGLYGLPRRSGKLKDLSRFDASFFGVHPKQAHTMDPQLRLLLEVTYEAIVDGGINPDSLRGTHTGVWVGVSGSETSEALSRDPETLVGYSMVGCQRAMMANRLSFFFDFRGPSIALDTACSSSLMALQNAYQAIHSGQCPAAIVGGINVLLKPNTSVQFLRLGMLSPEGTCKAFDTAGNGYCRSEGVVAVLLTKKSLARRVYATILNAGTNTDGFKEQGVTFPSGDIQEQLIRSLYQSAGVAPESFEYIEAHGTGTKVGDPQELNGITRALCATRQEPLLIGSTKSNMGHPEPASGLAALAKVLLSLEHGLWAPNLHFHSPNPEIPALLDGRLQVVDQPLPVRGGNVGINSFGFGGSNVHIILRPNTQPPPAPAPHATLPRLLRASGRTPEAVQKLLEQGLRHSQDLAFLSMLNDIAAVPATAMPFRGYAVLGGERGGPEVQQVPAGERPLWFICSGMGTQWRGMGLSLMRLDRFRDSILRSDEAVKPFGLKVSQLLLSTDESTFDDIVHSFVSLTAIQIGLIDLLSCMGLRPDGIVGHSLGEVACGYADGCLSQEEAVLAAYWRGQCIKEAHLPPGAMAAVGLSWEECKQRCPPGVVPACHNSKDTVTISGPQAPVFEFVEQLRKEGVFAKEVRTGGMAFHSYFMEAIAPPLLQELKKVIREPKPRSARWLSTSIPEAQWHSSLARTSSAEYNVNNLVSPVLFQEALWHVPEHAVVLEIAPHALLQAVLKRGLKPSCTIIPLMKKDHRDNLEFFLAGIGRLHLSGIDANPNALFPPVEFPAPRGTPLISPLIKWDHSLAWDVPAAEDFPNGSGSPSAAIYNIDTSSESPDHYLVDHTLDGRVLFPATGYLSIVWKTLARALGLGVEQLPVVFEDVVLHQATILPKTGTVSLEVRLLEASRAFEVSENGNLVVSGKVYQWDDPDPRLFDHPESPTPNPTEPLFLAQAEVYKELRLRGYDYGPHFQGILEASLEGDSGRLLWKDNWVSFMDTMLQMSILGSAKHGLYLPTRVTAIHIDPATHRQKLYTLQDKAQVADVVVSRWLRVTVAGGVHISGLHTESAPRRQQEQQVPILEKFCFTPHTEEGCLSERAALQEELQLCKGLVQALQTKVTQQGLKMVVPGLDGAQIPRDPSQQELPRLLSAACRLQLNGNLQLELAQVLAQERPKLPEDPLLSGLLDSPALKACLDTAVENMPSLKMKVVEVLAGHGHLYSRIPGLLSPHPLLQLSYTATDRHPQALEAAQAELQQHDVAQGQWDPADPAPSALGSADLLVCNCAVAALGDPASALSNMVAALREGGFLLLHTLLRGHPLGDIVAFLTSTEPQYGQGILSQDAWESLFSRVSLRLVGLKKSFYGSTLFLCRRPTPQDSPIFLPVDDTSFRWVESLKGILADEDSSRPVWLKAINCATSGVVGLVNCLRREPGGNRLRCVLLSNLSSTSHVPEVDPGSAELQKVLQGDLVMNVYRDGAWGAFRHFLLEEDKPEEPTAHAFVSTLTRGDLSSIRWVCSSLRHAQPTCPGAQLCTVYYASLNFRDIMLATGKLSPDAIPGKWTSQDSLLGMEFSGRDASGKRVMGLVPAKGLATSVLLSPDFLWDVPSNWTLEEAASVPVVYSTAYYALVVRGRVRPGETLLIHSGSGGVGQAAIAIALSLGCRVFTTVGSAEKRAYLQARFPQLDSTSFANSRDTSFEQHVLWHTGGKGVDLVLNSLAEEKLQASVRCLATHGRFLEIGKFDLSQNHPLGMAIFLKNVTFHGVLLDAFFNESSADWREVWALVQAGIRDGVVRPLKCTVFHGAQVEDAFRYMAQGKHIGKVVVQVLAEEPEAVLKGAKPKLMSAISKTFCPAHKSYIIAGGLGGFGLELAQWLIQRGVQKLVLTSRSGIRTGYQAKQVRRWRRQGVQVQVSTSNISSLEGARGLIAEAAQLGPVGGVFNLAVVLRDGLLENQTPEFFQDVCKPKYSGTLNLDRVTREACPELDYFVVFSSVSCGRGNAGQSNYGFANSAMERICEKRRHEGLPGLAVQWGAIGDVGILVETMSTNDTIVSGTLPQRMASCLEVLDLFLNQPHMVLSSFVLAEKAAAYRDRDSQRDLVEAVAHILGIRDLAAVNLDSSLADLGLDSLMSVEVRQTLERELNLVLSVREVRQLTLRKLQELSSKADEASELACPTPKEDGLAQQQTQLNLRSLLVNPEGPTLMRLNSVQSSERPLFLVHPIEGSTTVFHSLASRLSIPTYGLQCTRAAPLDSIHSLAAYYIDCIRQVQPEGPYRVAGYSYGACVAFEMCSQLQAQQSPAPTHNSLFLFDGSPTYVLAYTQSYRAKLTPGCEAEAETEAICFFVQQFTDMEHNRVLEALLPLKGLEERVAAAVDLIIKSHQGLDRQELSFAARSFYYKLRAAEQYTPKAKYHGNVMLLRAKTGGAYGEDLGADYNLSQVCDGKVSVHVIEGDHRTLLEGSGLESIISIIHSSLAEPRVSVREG
Beta Lactamase, sequence (Q932Y6 whole entry): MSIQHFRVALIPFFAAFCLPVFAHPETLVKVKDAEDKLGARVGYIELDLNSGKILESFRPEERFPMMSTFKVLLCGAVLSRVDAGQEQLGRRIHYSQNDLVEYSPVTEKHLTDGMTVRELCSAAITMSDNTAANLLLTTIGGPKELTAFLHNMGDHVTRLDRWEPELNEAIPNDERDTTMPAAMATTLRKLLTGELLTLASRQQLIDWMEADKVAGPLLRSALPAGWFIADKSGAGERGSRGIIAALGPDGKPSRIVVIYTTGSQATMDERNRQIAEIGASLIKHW
Galanin receptor type 3, sequence (O60755 whole entry): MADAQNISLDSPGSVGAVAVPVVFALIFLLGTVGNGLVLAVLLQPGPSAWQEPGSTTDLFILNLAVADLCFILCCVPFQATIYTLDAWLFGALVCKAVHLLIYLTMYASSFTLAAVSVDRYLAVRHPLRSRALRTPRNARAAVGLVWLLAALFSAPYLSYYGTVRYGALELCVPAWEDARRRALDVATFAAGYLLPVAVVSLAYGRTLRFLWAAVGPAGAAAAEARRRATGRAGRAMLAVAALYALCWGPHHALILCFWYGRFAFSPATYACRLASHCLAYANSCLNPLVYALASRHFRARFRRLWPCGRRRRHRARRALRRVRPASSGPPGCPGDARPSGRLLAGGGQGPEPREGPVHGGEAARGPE

COC/C=C/C1=CC2=CC(=O)C(C)(OC(=O)C3CCCC3)C(=O)C2=CO1 (stereo unspecified)
IC50 [1]: > 100 µM (inactive)
IC50 [2]: 90.2 µM (active)
IC50 [3]: 11.4 µM (inactive)
EC50 [4]: > 300 µM (not active)
EC50 [5]: > 300 µM (not active)

O=C(Nc1ccc(CN2CCOCC2)cc1)c1ccc(-c2cccc(Cl)c2)o1
AC50 [6]: 44.2 µM (active)
AC50 [7]: 32.2 µM (active)
IC50 [8]: 81.7 µM (inactive)

CCn1c(/C=C/Nc2ccccc2)[n+](CC)c2cc(Cl)ccc21
IC50 [9]: 26.3 µM (inactive)

CC(C)(C)c1cc(C(=O)NNC(=O)Nc2cccc(Cl)c2)n(Cc2ccccc2)n1
EC50 [10]: > 53 µM (inactive)
IC50 [11]: 5.13 µM (active)
IC50 [12]: 2 µM (active)

COc1ccc(NC(=S)N2CCC(Cc3ccccc3)CC2)cc1
IC50 [9]: 25.5 µM (inactive)

O=C(Cn1nc(-c2ccc3c(c2)OCCO3)ccc1=O)Nc1ccc(-n2cnnn2)cc1
IC50 [13]: 38.5 µM (inactive)

Fc1ccc(NC(=S)NNc2ncc(C(F)(F)F)cc2Cl)c(F)c1
IC50 [14]: 1.79 µM (active)
EC50 [15]: > 40 µM (inactive)
IC50 [16]: 15.6 µM (active)

COc1ccc2ccccc2c1CNC(C)c1ccccc1 (stereo unspecified)
AC50 [17]: 31 µM (active)

Cc1ccc2nc3c(cc(C(=O)NCc4ccccc4)c(=N)n3CCCn3ccnc3)c(=O)n2c1
IC50 [18]: 29.8 µM (inactive)
AC50 [19]: 48 µM (active)

COc1cc(/C=C(\C#N)c2ccccn2)ccc1OCC(=O)Nc1c(Cl)cccc1Cl
IC50 [8]: 96.6 µM (inactive)

CCOC(=O)c1cnc2c(C)cc(Cl)cc2c1NCCCN1CCOCC1
AC50 [20]: 17.4 µM (active)
AC50 [21]: 60.9 µM (active)

COc1ccc(OC)c(S(=O)(=O)N2c3ccccc3CC2C)c1 (stereo unspecified)
EC50 [10]: > 53 µM (inactive)
IC50 [11]: 3.48 µM (active)
IC50 [12]: 33.9 µM (active)

CCOC(=O)[C@]12Cc3ccc(C)cc3[C@H]1N(C1CCCCC1)C(=O)c1ccccc12
IC50 [22]: 6.79 µM (active)
IC50 [23]: 2.19 µM (active)
IC50 [24]: 20 µM (inactive)
IC50 [25]: 6.12 µM (active)

N=C(N/N=C/c1ccnc2ccccc12)SC1CC(=O)N(c2ccc(Br)cc2)C1=O (stereo unspecified)
IC50 [13]: 12.7 µM (inactive)
